{"source": "paper PMC7859945", "about": "(ACS Omega, 2021)", "key": {"[1]": {"tested_on": "various breast cancer cells", "conditions": "various breast cancer cells in vitro; cited from earlier work"}, "[2]": {"experiment": "Kinetic solubility study of metformin salts in lipid excipients", "conditions": "for solubility in lipid vehicles: Miglyol 812N and Capryol 90 (text statement for both); for solubility (mg/g) of lipid excipient: medium-chain triglyceride (Miglyol 812N), kinetic solubility, visual inspection"}, "Solubility in water": {"experiment": "Solubility in water", "assay_type": "physicochemical", "conditions": "data not shown"}, "SK-N-Be2c cells": {"tested_on": "SK-N-Be2c cells", "experiment": "In vitro cytotoxicity, SRB assay, SK-N-Be2c cells", "assay_type": "cell-based", "conditions": "Homo sapiens, SK-N-BE(2)-C, read-out: IC50, cytotoxicity (Be2c)"}, "MYCN-2 cells": {"tested_on": "MYCN-2 cells", "experiment": "In vitro cytotoxicity, SRB assay, MYCN-2 cells", "assay_type": "cell-based", "conditions": "Homo sapiens, read-out: IC50, cytotoxicity (MYCN)"}, "cancer cells": {"tested_on": "cancer cells", "conditions": "read-out: IC50, anticancer activity; cited from earlier work"}, "[3]": {"conditions": "cited from earlier work"}, "[4]": {"tested_on": "MYCN-2 and SK-N-Be2c neuroblastoma cells", "experiment": "In vitro cytotoxicity, SRB assay, statements spanning both neuroblastoma lines", "assay_type": "cell-based, human", "conditions": "MYCN-2 and SK-N-Be2c cells"}, "[5]": {"tested_on": "triple-negative breast cancer", "conditions": "mouse model of triple-negative breast cancer, 250 mg/kg; cited from earlier work"}}, "note": "Where a name gives a salt, the structure may show the parent alone."}
{"compound": "CN(C)C(=N)NC(=N)N.NCC1(CC(=O)O)CCCCC1", "note": "[metformin gabapentin salt]", "values": [{"measurement": "improvement of the potency of metformin", "setting": "[1]", "value": "2- to 10 fold"}]}
{"compound": "CN(C)C(=N)NC(=N)N.C[C@H](CCC(=O)O)[C@H]1CC[C@H]2[C@@H]3[C@H](O)C[C@@H]4C[C@H](O)CC[C@]4(C)[C@H]3C[C@H](O)[C@]12C", "note": "[metformin cholate, Metformin Cholate]", "values": [{"measurement": "solubility in lipid vehicles", "setting": "[2]", "value": "< 5", "unit": "mg/g"}, {"measurement": "solubility (mg/g) of lipid excipient", "setting": "[2]", "value": "<5", "unit": "mg/g"}, {"measurement": "water solubility", "setting": "Solubility in water", "value": "> 1", "unit": "mg/mL"}]}
{"compound": "CN(C)C(=N)N=C(N)N", "note": "[metformin hydrochloride, Metformin hydrochloride]", "values": [{"measurement": "IC50", "setting": "SK-N-Be2c cells", "value": "> 100", "unit": "mM"}, {"measurement": "IC50", "setting": "MYCN-2 cells", "value": "> 100", "unit": "mM"}, {"measurement": "IC50", "setting": "cancer cells", "value": "> 1", "unit": "mM"}]}
{"compound": "CCCCC(CC)COC(=O)CC(C(=O)OCC(CC)CCCC)S(=O)(=O)O.CN(C)C(=N)N=C(N)N", "note": "(stereo not drawn) [metformin docusate, Metformin Docusate]", "values": [{"measurement": "solubility in lipid vehicles", "setting": "[2]", "value": "> 200", "unit": "mg/g"}, {"measurement": "solubility (mg/g) of lipid excipient", "setting": "[2]", "value": ">200", "unit": "mg/g"}, {"measurement": "solubility in medium-chain triglycerides and propylene glycol fatty acid esters", "setting": "[3]", "value": "> 75", "unit": "mg/g"}, {"measurement": "improvement in anticancer potency (lower IC50) compared to metformin hydrochloride", "setting": "[4]", "value": "700- to 4300 fold"}]}
{"compound": "CN(C)C(=N)NC(=N)N.NCCCC(=O)O", "note": "[metformin gamma-aminobutyric acid salt]", "values": [{"measurement": "improvement of the potency of metformin", "setting": "[1]", "value": "2- to 10 fold"}]}
{"compound": "CCCC(=O)O.CN(C)C(=N)N=C(N)N", "note": "[metformin butyrate]", "values": [{"measurement": "improvement of the potency of metformin", "setting": "[1]", "value": "2- to 10 fold"}, {"measurement": "anticancer activity versus metformin", "setting": "[5]", "value": "significantly higher anticancer activity than metformin"}]}
{"compound": "CC(C)C[C@H](CN)CC(=O)O.CN(C)C(=N)NC(=N)N", "note": "[metformin pregabalin salt]", "values": [{"measurement": "improvement of the potency of metformin", "setting": "[1]", "value": "2- to 10 fold"}]}
